Data reported in ChEMBL document CHEMBL5727835, “Alkynyl dihydroquinoline sulfonamide compounds” (2020).

Experiments:
[1] = Nav 1.7 or Nav 1.5 IWQ In Vitro Assay: HEK 293 Cells stably transfected with either Nav 1.7 or Nav 1.5 were recorded in population patch-clamp mode with the IonWorks® Quattro automated electrophysiology system in accordance with the manufacturer's specifications (Molecular Devices, LLC, Sunnyvale, Calif.). Sodium channel currents were measured in response to a train of depolarizations that induced successively greater inactivation.Cells were held at −110 mV for three seconds (Nav 1.7) or half a second (Nav 1.5) from a holding voltage of −15 mV, then put through a series of 26 pulses of 150 msec duration to −20 mV at a frequency of 5 Hz. Cells were then left unclamped for a period of 3 to 8 minutes while a single concentration of test compound was added. Cells were then reclamped and put through the same voltage protocol. Current at the end of the 26th pulse to −20 mV was subtracted from the peak current evoked by the 26th pulse to −20 mV to correct for leak current. Percent block was calculated for each concentration in duplicate, and IC50 curves were fitted to percent block as a function of concentration.; conditions: HEK293
[2] = Nav 1.7 In Vitro PX Assay: HEK 293 cells stably transfected with human Nav1.7 were recorded in whole cell voltage clamp mode with the PatchXpress automated electrophysiology system (Molecular Devices, LLC, Sunnyvale, Calif.). Compound effects were measured on a partially inactivated state of the sodium channel. Cells were clamped to a holding potential yielding 20 to 50% inactivation. To elicit sodium current, channels were activated by pulsing to −10 mV for 20 msec. This voltage protocol was repeated at a rate of 0.1 Hz throughout the experiment. A single concentration of test compound was applied to cells for a duration of 3 minutes. Peak sodium current was measured at the end of the compound addition period to determine percent inhibition. Three to five cells were tested per concentration, and IC50 curves were fitted to percent inhibition as a function of concentration.; conditions: HEK293

| Structure (SMILES) | IC50 [1] | IC50 [2] |
| --- | --- | --- |
| COc1cc(C#CC2CCCC2)c(F)cc1-n1c(=O)ccc2cc(S(=O)(=O)Nc3ccon3)ccc21 | 4.53 nM | 17.3 nM |
| COc1cc(C#CC2CCCC2)c(Cl)cc1-n1c(=O)ccc2cc(S(=O)(=O)Nc3ccon3)ccc21 | 10 nM | 18.6 nM |
| COc1cc(C#CC2(OCC(F)(F)F)CCCC2)c(F)cc1-n1c(=O)ccc2cc(S(=O)(=O)Nc3ccon3)ccc21 | 9.73 nM | 33.8 nM |
| COc1cc(C#C[C@@H]2C[C@@H]2C(F)(F)F)c(F)cc1-n1c(=O)ccc2cc(S(=O)(=O)Nc3ccon3)ccc21 | 5.5 nM | 139 nM |
| COc1cc(C#C[C@H]2C[C@@H]2C(F)(F)F)c(F)cc1-n1c(=O)ccc2cc(S(=O)(=O)Nc3ccon3)ccc21 |  | 210 nM |
| COc1cc(C#CC2(C(F)(F)F)CC2)c(F)cc1-n1c(=O)ccc2cc(S(=O)(=O)Nc3ccon3)ccc21 | 8 nM |  |
